Results reported in patent publication US8048870B2, “Apoptosis-inducing antineoplastic silver (I) coordination complexes” (priority 2005, dated 2011).

Tests used:
Jurkat cells = assay: DeadEnd Colorimetric TUNEL assay for in-situ apoptosis, Jurkat; format: cell-based, human; conditions: 6 hours of incubation
Method: (§1) Detection of in-situ apoptosis was performed by the DeadEnd Colorimetric TUNEL (terminal deoxynucleotidyltransferase nick end labeling) assay for the detection of apoptosis in cultured cells as described in Promega kit (Promega Corporation-2800 Woods Hollow Road, Madison, Wis. 53711-5399, USA). Briefly, control and apoptosis-induced cells were centrifuged, washed with PBS, and were fixed on glass slides coated with poly-L-lysine (Sigma-Aldrich). The cells were fixed by immersing the slides in 10% buffered formalin, 4% paraformaldehyde solution for 25 minutes at room temperature. The fixed cells were then washed twice with fresh PBS for 5 minutes at room temperature. The cells were permeabilized by immersing the slides in 0.2% Triton® X-100 solution in PBS for 5 minutes at room temperature. The slides were then rinsed twice with PBS for 5 minutes each at room temperature. The excess liquid was then removed by tapping the slides, and the cells were covered with 100 μL of Equilibration Buffer, and the slides were equilibrated for 8 minutes at room temperature. Then, 100 μL of rTdT reaction mix were added and blotted around the equilibrated areas. The slides were then incubated at 37° C. for an hour inside a humidifier. Then, the reactions were terminated, the slides were washed and 0.3% hydrogen peroxide, and other reagents and washing steps were conducted according to the manufacturer's instructions. The slides were then observed under a light microscope for apoptotic staining. For comparative purposes, apoptotic studies were also performed on cisplatin. […]
(§2) To examine the mode of inherent chemotherapeutic activities of silver (I) complexes, apoptosis was detected by the TUNEL assay for each cell line studies for Phases I, II and III identified above. […] The 18 and 6-hour incubation periods were chosen because it was determined in previous experiments of this work that induction of apoptosis of silver (I) complex was within these times for these two cell lines.

[1] = tested on: T-47D human breast carcinoma; assay: Cytotoxicity (% inhibition), trypan blue dye exclusion viable cell count, T-47D; format: cell-based
Method: The chemotherapeutic activities of the silver (I) coordination complex were determined on T-47D human breast carcinoma and Jurkat T-cell acute lymphoblastic leukemia, and compared with cisplatin (Pt(NH3)2Cl2) at 385 μg/mL, corresponding to 250 μg/mL platinum, which is the same concentration used for Ag for the experiments described in Examples 1 and 2, below. The two tumor cell lines were chosen very carefully so as to include solid (T-47D) and disseminated (Jurkat) neoplasia. Cells are plated in a 96-well flat bottom tissue culture plates at 50,000 cells/well. The experiments were conducted by serial dilution.
All cell lines were grown and tested in complete RPMI-1640 medium supplemented with 10% FBS, 40 μg/mL GEN, HEPES buffer of pH=7.2, 2 mM L-glutamine and sodium pyruvate. Plates were incubated in 5% CO2 at 37° C. in a humidified incubator for 24 hrs. Human tumor cells were maintained in the log phase by routine passaging every 2-3 days.
To assess % inhibition of tumor cells, the number of viable cells were counted by trypan blue dye exclusion method on a hemocytometer by microscopy, and adjusted for concentration of cells/mL. Briefly, each well was plated and washed with PBS twice and then harvested with 0.5 mL of Trypsin/EDTA. Cells were diluted with 1 ml of culture media and stained with trypan blue dye.
To examine if there was any interaction between culture medium and test reagents, the test culture was also inoculated with the present reagents without the presence of any of the drugs. […] All experiments were done in triplicates, and the results are averaged and reported.
Regression models were applied to the data to assess the correlation between % inhibition and concentration. Multiple curve estimation procedure was employed, and the relative fit for each model was determined on the basis of the values of the correlation coefficient, r^2; the fit that gives r^2 values closer to 1.0 was selected. The regression equations were then integrated over the concentration intervals for each phase, and their sum was taken as the AUCt>24.

T-47D cells = assay: DeadEnd Colorimetric TUNEL assay for in-situ apoptosis, T-47D; format: cell-based, human; conditions: 18 hours of incubation
Method: as §1, §2

[2] = patients, i.v. injections; cited from earlier work

Molecule	apoptotic staining (TUNEL) (Jurkat cells; 0.0076 μg/mL (Phase I))	apoptotic staining (TUNEL) (Jurkat cells; 3.906 μg/mL (Phase II))	apoptotic staining (TUNEL) (Jurkat cells; 15.625 μg/mL (Phase III))	calculated AUCt>24 ([1]; Phase I) [cfu·μg/mL]	calculated AUCt>24 ([1]; Phase II) [cfu·μg/mL]	calculated AUCt>24 ([1]; Phase III) [cfu·μg/mL]	average % inhibition ([1]; range of 0.0019-0.0152 μg/mL metal) [%]	apoptotic staining (TUNEL) (T-47D cells; 0.0076 μg/mL (Phase I))	apoptotic staining (TUNEL) (T-47D cells; 3.906 μg/mL (Phase II))	apoptotic staining (TUNEL) (T-47D cells; 15.625 μg/mL (Phase III))	LOAEL (lowest-observed-adverse-effect level) for argyria [2] [mg/kg/day]
N.N.[Cl][Pt][Cl] [CIS-Pt, cis-diaminedichloroplatinum (II)]	evident	evident	evident	0.0	2.05	107	0	absent	evident	evident	–
silver arsphenamine	–	–	–	–	–	–	–	–	–	–	0.014
